Counter-ions that a name gives are not always drawn.
Columns and labels:
[1] = In vitro solubility behaviour; assay type: physicochemical; settings: for In vitro solubility profile: compared with fesoterodine fumarate
Protocol: The in vitro solubility behaviour of fesoterodine fumarate (crystalline, commercially available), desfesoterodine fumarate in accordance with Comparative Example 1 and desfesoterodine tartrate in accordance with Example 1 of the invention was investigated:
Solubility behaviour scale: • poor: <20 mg/ml • average: 20 to 60 mg/ml • good: >60 to 80 mg/ml • very good: >80 mg/ml

[2] = Stability on storage, stress test; assay type: physicochemical
Protocol: Further, the stability on storage of desfesoterodine tartrate was determined in a stress test.

[3] = tested on: overactive bladder syndrome; settings: both phase III studies, over placebo; cited from earlier work

Compound	In vitro solubility behaviour ([1]; pH 4.5)	In vitro solubility behaviour ([1]; pH 10)	In vitro solubility profile [1]	In vitro solubility profile ([1]; listed as desfesoterodine salt of the invention)	Stability on storage ([2]; aqueous solution, pH of 4.5)	Stability on storage ([2]; aqueous solution, pH of 10)	Stability on storage ([2]; solid form)	Clinically relevant outcomes (urge incontinence results/24 h, micturition frequency, median micturition volume) [3]
CC(C)C(=O)Oc1ccc(CO)cc1[C@H](CCN(C(C)C)C(C)C)c1ccccc1 [Fesoterodine fumarate, 2-[(1R)-3-(diisopropylamino)-1-phenylpropyl]-4-(hydroxymethyl)phenyl-isobutyrate]	Good	Good						
CC(C)N(CC[C@H](c1ccccc1)c1cc(CO)ccc1O)C(C)C [Desfesoterodine fumarate, (R)-2-(3-diisopropylamino-1-phenylpropyl)-4-hydroxymethylphenol]	Poor	Poor	substantially poorer in vitro solubility profile					
CC(C)N(CC[C@H](c1ccccc1)c1cc(CO)ccc1O)C(C)C [Desfesoterodine tartrate, (R)-2-(3-diisopropylamino-1-phenylpropyl)-4-hydroxymethylphenol]	Good	Good		almost identical in vitro solubility profile to that of fesoterodine fumarate	advantageous stability on storage	advantageous stability on storage	advantageous stability on storage	
CC(C)C(=O)Oc1ccc(CO)cc1[C@H](CCN(C(C)C)C(C)C)c1ccccc1 [Fesoterodine, 2-[(1R)-3-(diisopropylamino)-1-phenylpropyl]-4-(hydroxymethyl)phenyl-isobutyrate]								statistically significant improvements
